These are literature values, as cited in US20030232787A1, “Combinations of an endothelin receptor antagonist and an antiepileptic compound having pain alleviating properties or analgesic” (priority 2002, published 2003).

Each structure is given as a SMILES string. Square brackets hold non-standard residues; d marks the D form. Peptide text beside a SMILES is read from it.

In series [1] the test system is streptozotocin-induced static allodynia. Particulars: rat; Field et al.; cited from earlier work.
For series [2], the system named is rat model of diabetic neuropathy. To be noted: Jarvis et al. 2000; cited from earlier work.
Series [3] deals with mouse model of inflammation and hyperalgesia. Particulars: Piovezan et al. 2000; cited from earlier work.

`CC(NC(=O)C(C)(Cc1c[nH]c2ccccc12)NC(=O)OCc1cc2ccccc2o1)c1ccccc1` (stereo not drawn) [[2-(1H-indol-3-yl)-1-methyl-1-(1-phenyl-ethylcarbamoyl)-ethyl]-carbamic acid benzofuran-2-ylmethyl ester]: the “effect on maintenance of streptozotocin-induced static allodynia” value in series [1] is recorded as “block the maintenance of streptozotocin-induced static allodynia”. Consider `CCCCN(CCCC)C(=O)CN1C[C@H](c2ccc3c(c2)OCO3)[C@@H](C(=O)O)[C@@H]1c1ccc(OC)cc1` [ABT-627, 2R-(4-Methoxyphenyl)-4S-(1,3-benzodioxol-5-yl)-1-(N,N-di(n-butyl)aminocarbonyl-methyl)-pyrrolidine-3R-carboxylic acid], for which, in series [2], the effect on pain result is given as “attenuate pain”. As to `CC(C)C[C@@H]1NC(=O)[C@@H](C(C)C)NC(=O)[C@@H]2CCCN2C(=O)[C@@H](CC(=O)O)NC(=O)[C@@H](Cc2c[nH]c3ccccc23)NC1=O` [BQ-123] (cyclo(L[dW][dD]P[dV])), in series [3], the effect on pain entry is given as “alleviate pain”.
